Measured values: the supplement of paper PMC11451515

Tested on: SEM cells
Test: cell viability relative to DMSO control; higher = less cytotoxic
Settings: 48 h
Outline: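 Three leukemia lines were tested: NOMO1 and SEM at 500 cells/well and P12-Ichikawa at 1000 cells/well. Each was adapted for at least four passages in each medium and seeded in 5 μl in 1536-well plates, and library compounds in DMSO were pin-dosed from 47 μM to 0.79 nM in 11 threefold steps. After 48 h at 37°C, CellTiter-Glo One luminescence was read. Viability is a percentage relative to DMSO wells on each plate, with cell-free wells as background.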

[1] = HPLM + 10% dialyzed FBS, 0.000781 µM
[2] = HPLM + 10% dialyzed FBS, 0.00234 µM
[3] = HPLM + 10% dialyzed FBS, 0.00702 µM
[4] = HPLM + 10% dialyzed FBS, 0.0211 µM
[5] = HPLM + 10% dialyzed FBS, 0.0632 µM
[6] = HPLM + 10% dialyzed FBS, 0.19 µM
[7] = HPLM + 10% dialyzed FBS, 0.569 µM
[8] = HPLM + 10% dialyzed FBS, 1.71 µM
[9] = HPLM + 10% dialyzed FBS, 5.12 µM
[10] = HPLM + 10% dialyzed FBS, 15.4 µM
[11] = HPLM + 10% dialyzed FBS, 46.1 µM
[12] = RPMI 5 mM glucose + 10% FBS, 0.000781 µM
[13] = RPMI 5 mM glucose + 10% FBS, 0.00234 µM
[14] = RPMI 5 mM glucose + 10% FBS, 0.00702 µM
[15] = RPMI 5 mM glucose + 10% FBS, 0.0211 µM
[16] = RPMI 5 mM glucose + 10% FBS, 0.0632 µM
[17] = RPMI 5 mM glucose + 10% FBS, 0.19 µM
[18] = RPMI 5 mM glucose + 10% FBS, 0.569 µM
[19] = RPMI 5 mM glucose + 10% FBS, 1.71 µM
[20] = RPMI 5 mM glucose + 10% FBS, 5.12 µM
[21] = RPMI 5 mM glucose + 10% FBS, 15.4 µM
[22] = RPMI 5 mM glucose + 10% FBS, 46.1 µM
[23] = RPMI 5 mM glucose + 10% dialyzed FBS, 0.000781 µM
[24] = RPMI 5 mM glucose + 10% dialyzed FBS, 0.00234 µM
[25] = RPMI 5 mM glucose + 10% dialyzed FBS, 0.00702 µM
[26] = RPMI 5 mM glucose + 10% dialyzed FBS, 0.0211 µM
[27] = RPMI 5 mM glucose + 10% dialyzed FBS, 0.0632 µM
[28] = RPMI 5 mM glucose + 10% dialyzed FBS, 0.19 µM
[29] = RPMI 5 mM glucose + 10% dialyzed FBS, 0.569 µM
[30] = RPMI 5 mM glucose + 10% dialyzed FBS, 1.71 µM
[31] = RPMI 5 mM glucose + 10% dialyzed FBS, 5.12 µM
[32] = RPMI 5 mM glucose + 10% dialyzed FBS, 15.4 µM
[33] = RPMI 5 mM glucose + 10% dialyzed FBS, 46.1 µM

SMILES | cell viability [1] | cell viability [2] | cell viability [3] | cell viability [4] | cell viability [5] | cell viability [6] | cell viability [7] | cell viability [8] | cell viability [9] | cell viability [10] | cell viability [11] | cell viability [12] | cell viability [13] | cell viability [14] | cell viability [15] | cell viability [16] | cell viability [17] | cell viability [18] | cell viability [19] | cell viability [20] | cell viability [21] | cell viability [22] | cell viability [23] | cell viability [24] | cell viability [25] | cell viability [26] | cell viability [27] | cell viability [28] | cell viability [29] | cell viability [30] | cell viability [31] | cell viability [32] | cell viability [33]
C[C@@]12C(=O)OC(=O)[C@@]1(C)C1CCC2O1 | 118% | 103% | 112% | 112% | 114% | 107% | 112% | 95.1% | 87.1% | 6.65% | 4.55% | 105% | 113% | 112% | 112% | 112% | 110% | 124% | 104% | 73.1% | 5.81% | 4.32% | 120% | 116% | 110% | 124% | 120% | 113% | 114% | 96.8% | 58.2% | 6.57% | 4.36%
Cn1cnc2c(F)c(Nc3ccc(Br)cc3F)c(C(=O)NOCCO)cc21 | 95.3% | 84.2% | 93.4% | 22% | 105% | 89.5% | 80% | 85.4% | 87.9% | 87.7% | 74.3% | 85.3% | 86.1% | 96.9% | 16% | 94.1% | 108% | 89.2% | 85.9% | 87.1% | 70.9% | 61.6% | 88.1% | 85.5% | 107% | 19.6% | 87.5% | 91.5% | 83.1% | 70.6% | 76.2% | 66% | 52.8%
OC[C@@H](O)[C@@H](O)[C@H](O)[C@@H](O)CO | 68.4% | 85.4% | 88.2% | 105% | 98.4% | 101% | 13.8% | 60% | 103% | 97% | 105% | 102% | 105% | 103% | 99.5% | 113% | 111% | 11.4% | 110% | 112% | 116% | 108% | 104% | 97.4% | 119% | 97.3% | 108% | 124% | 12.5% | 118% | 133% | 120% | 113%
CNC(=O)c1ccc2cc(C3(O)CCn4cncc43)ccc2c1 (stereo not given) | 128% | 119% | 103% | 125% | 125% | 113% | 108% | 107% | 106% | 123% | 107% |  |  |  |  |  |  |  |  |  |  |  |  |  |  |  |  |  |  |  |  |  | 
CN(C)[S+](=O)([O-])c1ccc2c(c1)C(=Cc1cc3c([nH]1)CCCC3)C(=O)N2 | 112% | 115% | 112% | 114% | 128% | 129% | 130% | 116% | 114% | 85.7% | 111% | 90.5% | 98.6% | 109% | 103% | 118% | 113% | 118% | 113% | 112% | 78.5% | 94.7% | 116% | 115% | 127% | 120% | 120% | 108% | 132% | 123% | 113% | 72.9% | 116%
C[C@H]1C[C@@H]2[C@H](CC[C@@]3(C)[C@H]2CC[C@]3(OC(C)=O)C(C)=O)[C@@]\4(C)CCC(=O)\C=C14 | 64.9% | 101% | 79.8% | 87% | 88.5% | 85.1% | 92.9% | 87.6% | 85.3% | 88.9% | 101% | 75% | 89.9% | 97.5% | 92.2% | 105% | 96.2% | 84.5% | 96.7% | 91.6% | 80.8% | 85.9% | 75.4% | 96% | 77.3% | 105% | 101% | 94.2% | 78.7% | 94.1% | 88% | 80.1% | 88.9%
Cc1nn(Cc2ccccc2Cl)c(C)c1CN(C)CC(O)COc1ccc(Cl)cc1 (stereo not given) | 95.7% | 98.1% | 103% | 119% | 100% | 102% | 109% | 104% | 105% | 41.8% | 46.9% | 100% | 109% | 93% | 112% | 110% | 116% | 107% | 114% | 105% | 41.1% | 41.4% | 109% | 91.8% | 107% | 103% | 113% | 89.9% | 97.2% | 101% | 95.8% | 39.2% | 38.3%
C[C@](O)(CS(=O)(=O)c1ccc(F)cc1)C(=O)Nc1ccc(C#N)c(C(F)(F)F)c1 | 93.9% | 108% | 104% | 89.4% | 116% | 112% | 114% | 116% | 105% | 109% | 93.4% | 81.3% | 101% | 99.7% | 74.3% | 88.6% | 97.2% | 102% | 88.4% | 93% | 91% | 75.3% | 105% | 113% | 116% | 73.4% | 119% | 111% | 132% | 122% | 96.1% | 97.5% | 72.7%
CN[C@H]1CCC2=CC(=C(OC)C(=C2C/3=C/C=C(OC)\C(=O)/C=C13)OC)OC | 108% | 102% | 64.8% | 23% | 24.1% | 28.6% | 23.3% | 18.4% | 13.4% | 12% | 4.23% | 123% | 122% | 85% | 16.8% | 20.8% | 21.6% | 18% | 14.3% | 9.18% | 7.14% | 2.84% | 97.1% | 88.9% | 62.8% | 17.8% | 21.4% | 23.9% | 20.4% | 12.6% | 9.12% | 7.84% | 3.33%
CCOC(=O)c1ccc(OC(=O)CCCCCNC(=N)N)cc1 | 111% | 91.3% | 117% | 120% | 123% | 131% | 132% | 127% | 120% | 57.9% | 39.8% | 116% | 108% | 134% | 109% | 130% | 140% | 141% | 105% | 45.9% | 31.8% | 27.2% | 99.1% | 86.9% | 142% | 132% | 109% | 117% | 123% | 125% | 95.7% | 37.8% | 26.4%
O=C1NC(=O)/C(=C/c2ccc3nccc(-c4ccncc4)c3c2)S1 | 108% | 104% | 105% | 107% | 95.5% | 74.5% | 43.9% | 49.5% | 19.7% | 13.7% | 1.01% | 115% | 116% | 134% | 116% | 108% | 86.1% | 55.4% | 48.2% | 23.9% | 7.87% | 1.09% | 105% | 103% | 101% | 111% | 96.7% | 67.8% | 46.9% | 43.4% | 24.3% | 12.8% | 0.853%
ClC1=CC=C(C=C1)C(C#N)C2=C(Cl)C=C(C=C2Cl)N3\N=C/C(=O)NC3=O (stereo not given) | 87.4% | 43.9% | 104% | 83.7% | 91.8% | 94.8% | 91.3% | 93.9% | 86.4% | 91.6% | 107% | 90.6% | 47.9% | 96.6% | 92.5% | 87.1% | 98.4% | 90.1% | 90.2% | 96.3% | 82.3% | 76.7% | 93.1% | 42.5% | 99.2% | 100% | 106% | 119% | 104% | 94.6% | 109% | 95.8% | 89.7%
Cc1ccccc1C(=O)c1ccc(Nc2ccc(Br)cc2N)cc1Cl |  |  |  |  |  |  |  |  |  |  |  | 96% | 106% | 97.7% | 17.3% | 109% | 123% | 112% | 107% | 106% | 83.2% | 18.2% | 117% | 121% | 123% | 21.4% | 112% | 102% | 116% | 110% | 122% | 86.3% | 21.4%
CC1CNc2c(cccc2[S+](=O)([O-])N[C@@H](CCCNC(=N)N)C(=O)N2CC[C@@H](C)C[C@@H]2C(=O)O)C1 (stereo not given in full) | 88% | 94.7% | 102% | 111% | 98.2% | 117% | 117% | 124% | 106% | 128% | 95.6% | 85.6% | 90% | 96.4% | 108% | 75.7% | 103% | 113% | 97.1% | 101% | 107% | 103% | 70% | 90.1% | 101% | 97% | 99.1% | 103% | 107% | 106% | 110% | 84.7% | 108%
CC(C)OC(=O)/C1=C/N(CC(C)(C)C2=C1[NH]C3=CC=CC=C23)C(=O)C4=CC=C(F)C(=C4)F | 71.9% | 76% | 75.3% | 73.4% | 81% | 68.9% | 62% | 72.9% | 78.9% | 59.6% | 67.1% | 76.8% | 83.5% | 88.2% | 80.2% | 79.8% | 67.7% | 71.1% | 71.8% | 79.6% | 61.8% | 78.6% | 72.9% | 82% | 80% | 86% | 94.9% | 89% | 71.5% | 87.4% | 106% | 65.5% | 73.1%
CN[C@@H]1[C@@H](O)[C@@H](O[C@@H]2[C@@H](O)[C@H](O[C@H]3O[C@H](CN)[C@@H](O)[C@H](O)[C@H]3O)[C@@H](N)C[C@H]2NC(=O)[C@@H](O)CN)OC[C@]1(C)O | 116% | 100% | 108% | 107% | 91.9% | 105% | 105% | 98.9% | 98% | 102% | 97.1% | 118% | 116% | 125% | 129% | 129% | 111% | 123% | 111% | 111% | 120% | 124% | 121% | 124% | 118% | 125% | 136% | 115% | 135% | 106% | 127% | 129% | 101%
